Measured values from patent publication US20250313544A1, “INHIBITORS OF GLUTATHIONE S-TRANSFERASE ZETA 1 (GSTZ1) AND METHODS OF USE” (H. LEE MOFFITT CANCER CENTER AND RESEARCH INSTITUTE, INC., priority 2022, published 2025).

Experiments:
H1792 cells = experiment: In-gel fluorescence analysis of probe-labeled proteins after photocrosslinking in live H1792 cells; format: binding, human; conditions: compared to vehicle
Description: (§1) Cells were grown in 10 cm dishes to ˜90% confluence at the time of treatment. Cells were carefully washed twice with Dulbecco's phosphate buffered saline (DPBS) and replenished with fresh serum-free RPMI 1640 media containing indicated probes ([…]), competitors, or DMSO. Without competitors, cells were incubated with probes for 30 min at 37° C. and then exposed to 365 nm UV light for 15 min on ice. With competitors, cells were pre-treated with competitors for 30 min and photoactivated for 15 min. Probes were then added to cells for an additional 30 min incubation. For no UV experiments, cells were incubated for 15 min under ambient light. Cells were harvested in cold DPBS and pellets were washed with cold DPBS (2 X). Pellets were either directly processed or kept frozen at −80° C. until use. Cells pellets were lysed for 30 min in cold DPBS (100-300 uL) per culture dish supplemented with 1% NP-40, followed by sonication (5 pulses, 4 s on, 20 s off, output setting=4). Lysates were centrifuged at 20,817×g for 20 min, and supernatant (soluble proteome) was used for further processing. Protein concentrations were determined using Bradford assays.
To 1 mg of protein, were added a mixture of TBTA (Tris((1-benzyl-4-triazolyl)methyl)amine, 60 μL/sample, 1.7 mM in 1:4 DMSO: t-BuOH stock), CuSO4 (20 μL/sample, 50 mM in H2O), TCEP (tris(2-carboxyethyl) phosphine, 20 μL/sample, 50 mM in DPBS, made fresh) and Biotin-Azide conjugate (10 μL/sample, 10 mM in DMSO stock). Each sample was rotated at room temperature for 2 h. To each resultant a cold 4:1 mixture (600 μL) of methanol (MeOH)/chloroform (CHCl3) was added followed by cold PBS (100 μL) on ice. The resulting cloudy mixture was centrifuged (5,000×g, 10 min, 4° C.) to fractionate the protein interface from the organic and aqueous solvent layers. A MeOH:CHCl3 (1:1, 1 mL, 2×) mixture was used to wash protein discs thoroughly. Protein discs were sonicated in cold 4:1 MeOH:CHCl3 (2 mL) mixture. The remaining precipitate was pelleted by centrifugation (5,000×g, 10 min, 4° C.). […] Gels were subjected to fluorescence imaging or Western Blotting.

H1792 LUAD cells = experiment: Chemical proteomics target profiling in live H1792 cells (label-free LC-MS/MS, comparison with control probe 22 and panel-wide cross-comparison); format: binding, human
Description: as §1
Protein pellets were transferred to 5 mL microcentrifuge tubes and then resuspended in a freshly-prepared solution of proteomics-grade urea (320 μL, 6 M Urea in DPBS) containing 80 μL of 10% SDS and dissolved by sonication. To each solution, 4 mL DPBS was added (final conc: 0.2%, total volume) and incubated with pre-equilibrated NeutrAvidin agarose resin (100 μL 1:1 slurry, Pierce, Cat. 29201) for 2 hrs at ambient temperature on a rotator. The NeutrAvidin beads were collected by centrifugation (1,400×g, 2 min) and sequentially washed with 0.2% SDS in DPBS (2×2 mL), detergent-free DPBS (2×2 mL), and 50 mM ammonium bicarbonate (AMBIC, 2×2 mL). Beads were resuspended with 200 μL 50 mM AMBIC and incubated with TCEP 50 μL (100 mM in 50 mM AMBIC) for 30 min at 37° C. Iodoacetamide (50 μL of 200 mM in 50 mM AMBIC) was added and incubated for 30 min at ambient temperature. The beads were again washed with 2×1 mL 50 mM AMBIC and resuspended in 100 μL of fresh 50 mM AMBIC and treated with 2 μg of sequencing grade modified trypsin (Promega, #V5111) at 37° C. overnight. These samples were acidified with formic acid (final conc: 5%) and centrifuged (1,000×g, 2 min). The supernatant was collected and desalted through ZIPTIPs, and the desalted peptide mixture were dried in vacuum and reconstituted with HPLC buffer (2% acetonitrile, 0.1% formic acid) for LC-MS/MS analysis. Tryptic peptides of avidin were excluded from MS2 analysis to maximize detection of the protein targets (Table S7). Samples were analyzed using LC-MS/MS after being spiked with 50 fmol/uL PRTC standards (88320, Pierce Retention Time Calibration Mixture, Thermo Fisher, MA). A nanoflow ultra high performance liquid chromatograph and nanoelectrospray orbitrap mass spectrometer (RSLCnano and Q Exactive plus, Thermo) were used for LC-MS/MS. The sample was loaded onto a pre-column (C18 PepMap100, 2 cm length×100 μm ID packed with C18 reversed-phase resin, 5 μm particle size, 100 Å pore size) and washed for 8 minutes with aqueous 2% acetonitrile and 0.1% formic acid. Trapped peptides were eluted onto the analytical column, (C18 PepMap100, 25 cm length×75 μm ID, 2 μm particle size, 100 Å pore size, Thermo). A 120-minute gradient was programmed as: 95% solvent A (aqueous 2% acetonitrile+0.1% formic acid) for 8 minutes, solvent B (aqueous 90% acetonitrile+0.1% formic acid) from 5% to 38.5% in 90 minutes, then solvent B from 50% to 90% B in 7 minutes and held at 90% for 5 minutes, followed by solvent B from 90% to 5% in 1 minute and re-equilibration for 10 minutes using a flow rate of 300 nl/min. Spray voltage was 1900 V. Capillary temperature was 275° C. S lens RF level was set at 40. Top 16 tandem mass spectra were collected in a data-dependent manner. The resolution for MS and MS/MS were set at 70,000 and 17,500 respectively. […]

## C#CCCC1(CCC(=O)N2CCC(COc3nc4ccccc4nc3C)CC2)N=N1 [Probe 17, 3-(3-(but-3-yn-1-yl)-3H-diazirin-3-yl)-1-(4-(((3-methylquinoxalin-2-yl)oxy)methyl)piperidin-1-yl)propan-1-one]
H1792 cells
  proteome labeling by probe (in-gel fluorescence): efficiently labeled a wide range of proteins
H1792 LUAD cells; compared to control probe and probe panel
  prominent target protein predominantly enriched by the probe: GSTZ1
H1792 LUAD cells; many other enriched putative targets vs. negative control probe alone
  selectivity of probe for GSTZ1: should not be considered a selective probe for GSTZ1
